The values that follow come from US11091437B2, “Aryl isonitriles as a new class of antimicrobial compounds” (Purdue Research Foundation, priority 2015, dated 2021).

Converted amounts (≈) assume the structure as drawn. Read-outs that look alike come from different tables or passages of the source.

Data set [1] has as its system MRSA. The data set can be described thus: MIC by broth microdilution against MRSA, VISA and VRSA strains. The conditions noted are these: for antimicrobial activity (in words): MRSA strains tested. It counts as cell-based, Staphylococcus aureus. The method, then: The bacterial growth inhibiting activity of these synthetic analogs of hit compound 1 were subsequently evaluated (FIG. 3).
The minimum inhibitory concentration (MIC) of each compound and linezolid was determined against eight different strains of MRSA, VISA, and VRSA using a modified version of the broth microdilution method, outlined by the CLSI. Institute CaLS, Methods for Dilution Antimicrobial Susceptibility Tests for Bacteria That Grow Aerobically—Seventh Edition: Approved Standard M7-A7. 7 ed. Wayne, Pa. 2011. The same analysis was performed with vancomycin against the VISA and VRSA strains tested. A bacterial suspension (˜1 Å˜10^5 CFU/mL) was prepared in Tryptic soy broth (TSB) and then transferred to a microtiter plate. Each agent tested was added (in triplicate) to wells in the first row of the plate and then serially diluted downward.
Background: Broth dilution looks for growth in wells or tubes with falling amounts of substance.

For data set [2], the system named is MRSA USA300. The experiment in a line: whole-cell screening of in house small molecules. It is filed as cell-based, Staphylococcus aureus. Conditions: MRSA USA300, whole-cell screening hit. The text has this: A whole-cell screening of a small number of in house generated small molecules with diverse structural skeletons (about 250 molecules) has been conducted against MRSA USA300 with the aim to identify compounds with novel skeletons to target antibiotic drug resistance. […] Marconi, G. G. et al., J. Antibiot, 1978, 31, 27-32; Mo, S. et al., J. Nat. Prod. 2009, 72, 894-899; Raveh, A. et al., J. Nat. Prod. 2007, 70, 196-201; Sugawara, T. et al., J. Antibiot, 1997, 50, 944-948; Fujiwara, A. et al., Agric. Biol. Chem. 1982, 46, 1803-1809, Marquez, J. A. et al., J. Antibiot, 1983, 36, 1101-1108. The novel structural skeleton of compound 1 as an antibacterial compound against drug resistant strains prompted further study of these types of isonitrile compounds. Herein is reported the chemical synthesis, structure-activity relationship study, and evaluation of the antibacterial performance of compound 1 and closely related analogs against several clinically-relevant MRSA and VRSA strains.

In data set [3] the test system is S. aureus exhibiting resistance to vancomycin (VRS2). The data set can be described thus: MIC by broth microdilution against vancomycin-resistant S. aureus. It is filed as cell-based. The conditions noted are these: Staphylococcus aureus; vancomycin-resistant clinical isolate VRS2.
The test system of data set [4] is murine macrophage (J774) cell line. The data set can be described thus: MTS toxicity assay against mammalian cells. On the technique in general: Formazan colour is commonly taken as a measure of viable cells.
Data set [5] in a line: physchem. Conditions: aqueous buffer, kinetic from dmso stock.
For data set [6] the following is noted: human, microsomes, 1 h.
The test system of data set [7] is Caco-2 cell monolayer. Conditions: human.
Data set [8] can be described thus: in vitro. The conditions noted are these: human, Caco-2.
Setting [9] is: Staphylococcus aureus, broth microdilution, over the MRSA strains tested, read-out: MIC against MRSA.

In the case of `[C-]#[N+]c1ccccc1/C=C(\CC)c1ccccc1` [Compound 1, (E)-1-isocyano-2-(2-phenylbut-1-en-1-yl)benzene], the MIC in data set [1] (setting [9]) lay in the range of 8 to 64 µM (≈ 1.87 to 14.9 µg/mL). The “concentration inhibiting bacterial growth” value in data set [2] worked out at 32 µM.

Take `[C-]#[N+]c1ccccc1CP(=O)(OCC)OCC` [Compound 4a, diethyl (2-isocyanobenzyl)phosphonate]: in data set [1] (broth microdilution, over the MRSA strains tested, read-out: MIC against MRSA), the MIC is listed as over 128 µM.

For `[C-]#[N+]c1ccccc1/C=C(\CC)c1ccc(C(F)(F)F)cc1` [Compound 10, (E)-1-isocyano-2-(2-(4-(trifluoromethyl)phenyl)but-1-en-1-yl)benzene], in data set [3], the MIC lay in the range of 2 to 16 µM (≈ 0.603 to 4.82 µg/mL).

Take `[C-]#[N+]c1ccccc1/C=C(\CC)c1cccc(C(F)(F)F)c1` [Compound 12]: the “toxicity to J774 cells at 64 μM” value in data set [4] is given as “toxic”.

Turning to `[C-]#[N+]c1ccccc1/C=C/c1ccccc1` [Compound 13, (E)-1-isocyano-2-styrylbenzene], the “concentration up to which not toxic to mammalian cells” value in data set [4] (J774 cells) amounted to 64 µM. Besides, in data set [1] (setting [9]), the MIC is at least 2 µM. Further, in data set [1] (removal of the ethyl group of 1), the “reduction in the MIC against MRSA relative to compound 1” value is given as “two-to-eight”. In addition, the solubility in data set [5] fell in the range of 1 to 100 µM (≈ 0.205 to 20.5 µg/mL). For the same compound, in data set [6], the “parent compound remaining after one hour” value worked out at 24% and the “parent compound remaining after one hour, NADPH not present” value turned out to be 51%. Further, in data set [7], the “apparent permeability Papp, apical (A) to basolateral (B)” value is 0.0 cm/sec and the “apparent permeability Papp, basolateral to apical” value was 0.0 cm/sec.

In the case of `[C-]#[N+]c1ccccc1/C=C/c1cccc(OC)c1` [Compound 15, (E)-1-isocyano-2-(3-methoxystyryl)benzene], in data set [4], the “toxicity to J774 cells at 128 μM” value was “not toxic”.

As to `[C-]#[N+]c1ccccc1/C=C/c1cccc(F)c1` [Compound 19, (E)-1-(3-fluorostyryl)-2-isocyanobenzene], the “toxicity to J774 cells at 64 μM” value in data set [4] was “toxic”.

As to `[C-]#[N+]c1ccccc1/C=C/c1ccc(C)cc1` [Compound 23, (E)-1-isocyano-2-(4-methylstyryl)benzene], in data set [1] (setting [9]), the MIC lay in the range of 4 to 64 µM (≈ 0.877 to 14 µg/mL).

`[C-]#[N+]c1ccccc1/C=C/c1ccc(CCCC)cc1` [Compound 24, (E)-1-(4-butylstyryl)-2-isocyanobenzene]: the MIC in data set [1] (Staphylococcus aureus, MRSA, read-out: MIC against most MRSA strains tested) is over 128 µM.

For `[C-]#[N+]c1ccccc1/C=C/c1ccc([N+](=O)[O-])cc1` [Compound 25, (E)-1-isocyano-2-(4-nitrostyryl)benzene], the “toxicity to J774 cells at 32 μM” value in data set [4] (32 μM) is “toxic”. Moreover, the “toxicity to J774 cells at 64 μM” value in data set [4] was “toxic”. In addition, the MIC in data set [3] fell in the range of 2 to 16 µM (≈ 0.501 to 4 µg/mL).

For `[C-]#[N+]c1ccccc1C=C1CCCCC1` [Compound 26, 1-(cyclohexylidenemethyl)-2-isocyanobenzene], the “activity against MRSA USA300, MRSA USA500 and MRSA NRS119” value in data set [1] (strains USA300, USA500, NRS119) was “inactive”.

On to `[C-]#[N+]c1ccccc1/C=C/c1ccccn1` [Compound 27, (E)-2-(2-isocyanostyryl)pyridine], for which, in data set [1] (broth microdilution), the “antimicrobial activity (in words)” value is on record as “reduced antimicrobial activities”.

In the case of `[C-]#[N+]c1ccccc1/C=C/c1cccnc1` [Compound 30, (E)-3-(2-isocyanostyryl)pyridine], the “toxicity to J774 cells at 128 μM” value in data set [4] is “not toxic”. Also, the “antimicrobial activity (in words)” value in data set [1] (broth microdilution) is “reduced antimicrobial activities”.

Regarding `[C-]#[N+]c1ccc(/C=C/c2cccnc2)cc1` [Compound 32, (E)-3-(4-isocyanostyryl)pyridine], in data set [3], the MIC lay within 2 to 16 µM (≈ 0.412 to 3.3 µg/mL).

Consider `[C-]#[N+]c1ccccc1/C=C/c1ccncc1` [Compound 33, (E)-4-(2-isocyanostyryl)pyridine], for which the “antimicrobial activity (in words)” value in data set [1] (broth microdilution) is listed as “reduced antimicrobial activities”.

With `[C-]#[N+]c1ccc(/C=C/c2ccncc2)cc1` [Compound 35, (E)-4-(4-isocyanostyryl)pyridine], the “activity relative to ortho- and meta-substituted 33 and 34” value in data set [1] (all the strains tested) is given as “much more active”. The compound also displayed an MIC in data set [3] of 2 to 16 µM (≈ 0.412 to 3.3 µg/mL).

Turning to `[C-]#[N+]c1ccc(/C=C/c2ccccc2)cc1` [Compound 37, (E)-1-isocyano-4-styrylbenzene], the “toxicity to J774 cells at 128 μM” value in data set [4] was “not toxic”. In addition, in data set [1] (MSSA (NRS72) and MRSA USA500), the “activity relative to ortho-substituted compound 13” value is “slight improvement”.

`[C-]#[N+]c1ccc(C)cc1-c1ccc(C(F)(F)F)cc1` [Compound 50, 2-isocyano-5-methyl-4′(trifluoromethyl)-1,1′-biphenyl]: the “antimicrobial activity (in words)” value in data set [1] (broth microdilution) is “loss in antimicrobial activity”.

For `[C-]#[N+]c1ccccc1CCc1ccccc1` [Compound 53, 1-isocyano-2-phenethylbenzene], the “potency relative to compound 13” value in data set [1] (all strains tested except VISA NRS1) is listed as “less potent”. The “activity against MRSA USA100, MRSA USA300, MRSA NRS119 and VISA NRS1” value in data set [1] (strains USA100, USA300, NRS119, VISA NRS1) is reported as “active”.

For the compound `CC(=O)CC(c1ccccc1)c1c(O)c2ccccc2oc1=O` (stereo not shown) [warfarin], the Papp B→A in data set [8] was 27 ×10⁻⁶ cm/s.

The term MIC denotes the lowest concentration found to suppress growth. One may read the solubility as how much of the substance goes into solution per volume. High values mean a readily soluble substance, low ones a poorly soluble substance. As a reminder, the Papp B→A is the apparent permeability from the basolateral to the apical side of a cell layer.
